# Assays:
# Settings in all cases: incubation time: 72 h
# [1] = tested on: MFM-223; test: normalised response (% of control), CellTox Green; higher = less cell death (100 = DMSO, 0 = benzethonium chloride kill control)
# In short: (§1)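 Every value is a normalised signal taken at one concentration of a dilution series. Compound was placed in 384-well plates at 5 concentrations in 10-fold steps over a compound-specific 10,000-fold range, and 20 µl of breast cancer cell suspension was seeded onto it. After 72 h, CellTox Green fluorescence (485/520 nm) was measured first and CellTiter-Glo luminescence second, following 10 min at room temperature. Each plate was scaled to 0.1 % DMSO (100) and a positive kill control (0).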
# [2] = tested on: HCC1937; test: as above
# In short: as §1
# [3] = tested on: HCC1143; test: as above
# In short: as §1
# [4] = tested on: CAL-85-1; test: as above
# In short: as §1
# [5] = tested on: Hs578T; test: as above
# In short: as §1
# [6] = tested on: CAL-51; test: as above
# In short: as §1
# [7] = tested on: MCF-10A; test: as above
# In short: as §1
# [8] = tested on: MDA-MB-436; test: as above
# In short: as §1
# [9] = tested on: HCC1599; test: as above
# In short: as §1
# [10] = tested on: BT-549; test: as above
# In short: as §1
# [11] = tested on: MDA-MB-453; test: as above
# In short: as §1
# [12] = tested on: DU-4475; test: as above
# In short: as §1
# [13] = tested on: MDA-MB-231; test: as above
# In short: as §1
# [14] = tested on: HDQ-P1; test: as above
# In short: as §1
# [15] = tested on: BT-474; test: as above
# In short: as §1
# [16] = tested on: CAL-120; test: as above
# In short: as §1
# [17] = tested on: MFM-223; test: normalised response (% of control), CellTiter-Glo; higher = more viable cells (100 = DMSO, 0 = benzethonium chloride kill control)
# In short: as §1
# [18] = tested on: HCC1937; test: as above
# In short: as §1
# [19] = tested on: HCC1143; test: as above
# In short: as §1
# [20] = tested on: CAL-85-1; test: as above
# In short: as §1
# [21] = tested on: Hs578T; test: as above
# In short: as §1
# [22] = tested on: SK-BR-3; test: as above
# In short: as §1
# [23] = tested on: CAL-51; test: as above
# In short: as §1
# [24] = tested on: MCF-10A; test: as above
# In short: as §1
# [25] = tested on: MDA-MB-436; test: as above
# In short: as §1
# [26] = tested on: HCC1599; test: as above
# In short: as §1
# [27] = tested on: BT-549; test: as above
# In short: as §1
# [28] = tested on: MDA-MB-453; test: as above
# In short: as §1
# [29] = tested on: DU-4475; test: as above
# In short: as §1
# [30] = tested on: MDA-MB-231; test: as above
# In short: as §1
# [31] = tested on: HDQ-P1; test: as above
# In short: as §1
# [32] = tested on: BT-474; test: as above
# In short: as §1
# [33] = tested on: CAL-120; test: as above
# In short: as §1
# [34] = tested on: MDA-MB-468; test: as above
# In short: as §1
# [35] = tested on: CAL-148; test: as above
# In short: as §1
# [36] = tested on: CAL-148; test: normalised response (% of control), CellTox Green; higher = less cell death (100 = DMSO, 0 = benzethonium chloride kill control)
# In short: as §1
Structure (SMILES),normalised response [1] [%],normalised response [2] [%],normalised response [3] [%],normalised response [4] [%],normalised response [5] [%],normalised response [6] [%],normalised response [7] [%],normalised response [8] [%],normalised response [9] [%],normalised response [10] [%],normalised response [11] [%],normalised response [12] [%],normalised response [13] [%],normalised response [14] [%],normalised response [15] [%],normalised response [16] [%],normalised response [17] [%],normalised response [18] [%],normalised response [19] [%],normalised response [20] [%],normalised response [21] [%],normalised response [22] [%],normalised response [23] [%],normalised response [24] [%],normalised response [25] [%],normalised response [26] [%],normalised response [27] [%],normalised response [28] [%],normalised response [29] [%],normalised response [30] [%],normalised response [31] [%],normalised response [32] [%],normalised response [33] [%],normalised response [34] [%],normalised response [35] [%],normalised response [36] [%]
O=C(O)c1ccc(-c2c[nH]c3ncc(-c4ccccc4)cc23)cc1C1CCCC1 (1000 nM),93.1,100,96.2,108,92.2,93.6,103,85.1,90.9,92.9,96.7,96.3,86.1,109,95.8,98.4,95.6,97,101,99.2,94.1,90.2,105,100,103,102,100,96.8,91.4,92.4,105,89.9,102,93.6,95.6,
C[C@]12CC[C@@H]3c4ccc(O)cc4C[C@@H](CCCCCCCCC[S+]([O-])CCCC(F)(F)C(F)(F)F)[C@H]3[C@@H]1CC[C@@H]2O (stereo partly specified) [Fulvestrant] (100 nM),90.7,106,111,108,103,113,105,108,101,106,87.5,101,114,,102,100,103,105,99.3,99.1,106,107,114,109,108,110,108,109,104,104,104,104,100,104,97.4,100
CCCCCCCCCCCCCCCCCCOP(=O)([O-])OC1CC[N+](C)(C)CC1 [Perifosine] (250 nM),59.2,107,118,107,97.2,110,102,94.7,97.8,88.6,104,101,79.8,115,100,106,93.7,101,104,95.4,104,97.7,116,110,99.3,101,97,98.2,96.5,102,105,102,104,99.7,97.7,93.9

# Source: the supplement of paper PMC4862054
